Source: patent publication US20030229066A1, “Novel heterocyclic urea derivatives and their use as dopamine D3 receptor ligands” (priority 2001, published 2003)
Where two headings read alike, the source gives them in different places.

What was measured:
[1] = target: T1, cloned human alpha-1A adrenergic receptors (α1a) (Homo sapiens, UniProt P35348); experiment: [3H]Prazosin binding to cloned human alpha-1A adrenergic receptors expressed in CHO cells; details: for Ki: Table II, pairs of 6-fluoro and 6-trifluoromethyl benzo[b]thiophenes, read-out: halpha1Ki
T1 construct: expressed in transfected cells
T1 sequence (P35348 1-466): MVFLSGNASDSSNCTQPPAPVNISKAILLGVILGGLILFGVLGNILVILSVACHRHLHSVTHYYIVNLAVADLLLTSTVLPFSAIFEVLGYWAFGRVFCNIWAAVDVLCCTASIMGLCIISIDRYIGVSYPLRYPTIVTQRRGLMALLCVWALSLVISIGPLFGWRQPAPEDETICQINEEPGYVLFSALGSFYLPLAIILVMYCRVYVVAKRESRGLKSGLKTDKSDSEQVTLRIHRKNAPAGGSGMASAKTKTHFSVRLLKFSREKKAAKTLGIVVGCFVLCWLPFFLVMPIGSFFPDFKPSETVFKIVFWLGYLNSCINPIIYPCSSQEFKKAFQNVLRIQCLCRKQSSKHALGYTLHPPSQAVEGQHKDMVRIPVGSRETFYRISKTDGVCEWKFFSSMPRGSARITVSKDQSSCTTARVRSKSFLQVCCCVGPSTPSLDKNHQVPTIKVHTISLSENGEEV
Text: [^3H]PRAZOSIN BINDING TO CLONED HUMAN ALPHA-1A ADRENERGIC RECEPTORS (α1a) EXPRESSED IN CHINESE HAMSTER OVARY CELLS (CHO)
This in vitro assay is designed as a screen to identify compounds displaying a affinity for the human α1a adrenoceptor subtype expressed in the membrane fragments of CHO cells. The assay-measures the ability of the test compounds to displace [^3H]prazosin from α1a sites.
Therefore, the binding of compounds to α1a adrenergic receptors is believed to be a good measure of a compound's potential to cause orthostatic hypotension and sedation as side effects. Prazosin is a potent antagonist of the human α1a-adrenoceptor subtype, which has been cloned and is expressed in the membrane fragments of CHO cells.
The cloning of the human α1a cDNA was accomplished first by screening a human prostate cDNA library (Clontech), from which a portion of the coding region was obtained. This DNA fragment was then used to screen a human leukocyte genomic library (Clontech), and the rest of the coding sequence was obtained. Later these two fragments were spliced together. The entire coding sequence was then fully sequenced including matching PCR sequence with original genomic coding sequence, thus ensuring splice sites were joined correctly (Schwinn et al., 1995). Once sequenced, the gene was subcloned into the expression vector pcDNA3 (Invitrogen). Plasmid DNA was then used for transfection into CHO cells and G418 resistant clones were isolated. A clone expressing high levels of the hα1a receptor (as determined by mRNA and receptor binding data) was chosen and pharmacologically characterized.
[7-methoxy-^3H]-Prazosin: 1.0 nM (NEN, NET-823) 70-87 Ci/mmol
A: 50 mM Tris HCl; 0.1% ascorbate, pH 7.7 (incubation buffer)
Total Binding=50 μl buffer A+50 μl [^3H]prazosin+100 μl membrane
Nonsp. Bd.=50 μl 10 μM phentolamine+50 μl [^3H]prazosin+100 μl membrane
Test Cpd.=50 μl compound+50 μl [^3H]prazosin+100 μl membrane
Compounds to be evaluated are weighed out to yield a 10 mM stock solution in DMSO in a 24 well polystyrene plate. This is diluted to a 0.5 mM stock in dH2O. Serial dilutions in Buffer A are made from which 50 μl additions to the plate are made in duplicate in order to achieve the final concentrations desired. Typically, one 96 well plate is used to evaluate 11 compounds at 4 concentrations (10^−6-10^−9 M) in duplicate. Total binding and nonspecific binding are determined in quadruplicate. Usually one standard is run with each assay.
[^3H]Prazosin is made up in Buffer A such that when 50 μl are added per well the final concentration is 1.0 nM in a final assay volume of 200 μl. The final concentration should be verified by running a sample in a scintillation counter prior to adding the [^3H]prazosin to the 96 well plate. Note: The radioactivity should be prepared just before the additions are made so that it is not allowed to sit on the bench for very long.
Incubation & Filtration: Once buffer, compounds, [^3H]prazosin and membrane have been added (and mixed), the 96 well plates are incubated for 40 min at 37° C. and spaced 3-5 min apart. At 40 min, the plates are filtered using a Tomtec Automated Cell Harvester. Filtration is immediately followed by washes of ice cold Buffer B (total vol. ˜7 ml).
Analysis of Results: Raw DPM and CPM data are captured on disk and are imported into one of several software packages (Graphpad Prism Ver 2.0, Excel) residing on the LAN. Specific binding is defined as the difference between total binding and the binding in the presence of 10 μM phentolamine. Total binding is less than 10% of the total added ligand. Software using one-site competition curve analysis is employed in the calculation of IC50 and Kj (Cheng-Prusoff equation, 1973). The top and bottom of the non-linear regression are held constant at 0% and 100% inhibition. The percent inhibition at each drug concentration is the mean of duplicate determinations.

[2] = target: T2, cloned human dopamine D3 receptors (Homo sapiens, UniProt P35462); experiment: [N-Methyl-3H]Spiroperidol binding to cloned human dopamine D3 receptors
T2 construct: expressed in transfected cells
Method in brief: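 Competition binding on homogenized CHO cells stably expressing human D3, with 0.4 nM [3H]NMSP (final), 37 °C for 30 min, filtration and scintillation counting. Nonspecific binding defined with 3 μM S(-)-eticlopride; typically eight test concentrations, 10^−5–10^−8 M final. Ki by Cheng-Prusoff from one-site competition fits, duplicate means.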

T2 sequence (P35462 whole entry): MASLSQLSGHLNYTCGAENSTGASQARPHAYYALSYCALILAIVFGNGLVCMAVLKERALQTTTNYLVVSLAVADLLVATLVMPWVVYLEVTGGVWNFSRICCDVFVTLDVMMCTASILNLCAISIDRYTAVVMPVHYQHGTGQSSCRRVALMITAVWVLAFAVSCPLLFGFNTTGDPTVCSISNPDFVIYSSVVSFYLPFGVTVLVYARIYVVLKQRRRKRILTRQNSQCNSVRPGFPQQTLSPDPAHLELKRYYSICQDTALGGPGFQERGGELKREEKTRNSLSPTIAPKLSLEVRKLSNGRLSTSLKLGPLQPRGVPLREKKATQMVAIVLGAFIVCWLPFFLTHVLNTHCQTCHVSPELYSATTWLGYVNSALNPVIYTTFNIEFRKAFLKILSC

O=C(NCCCCN1CCN(c2csc3cc(F)ccc23)CC1)Nc1ccccc1 [compound 813581]
Ki [1]: 0.0015 µM

CC(=O)c1ccc(NC(=O)NCCCCN2CCN(c3csc4cc(F)ccc34)CC2)cc1 [compound 814932]
Ki [1]: 0.0022 µM

COc1ccc(NC(=O)NCCCCN2CCN(c3csc4cc(F)ccc34)CC2)cc1 [compound 814933]
Ki [1]: 0.0018 µM

CCCCc1ccc(NC(=O)NCCCCN2CCN(c3csc4cc(F)ccc34)CC2)cc1 [compound 814937]
Ki [1]: 0.532 µM

Cc1ccc(NC(=O)NCCCCN2CCN(c3csc4cc(F)ccc34)CC2)cc1 [compound 814941]
Ki [1]: 0.0135 µM

O=C(NCCCCN1CCN(c2csc3cc(F)ccc23)CC1)NC1CCCCC1 [compound 814945]
Ki [1]: 0.0045 µM

O=C(NCCCCN1CCN(c2csc3cc(F)ccc23)CC1)Nc1ccc(Br)cc1 [compound 814949]
Ki [1]: 0.0182 µM

O=C(NCCCCN1CCN(c2csc3cc(F)ccc23)CC1)Nc1ccc(C(F)(F)F)cc1 [compound 814952]
Ki [1]: 0.0448 µM

O=C(NCCCCN1CCN(c2csc3cc(F)ccc23)CC1)Nc1cccc(F)c1 [compound 814953]
Ki [1]: 0.0035 µM

CC(=O)c1ccc(NC(=O)NCCCCN2CCN(c3csc4cc(C(F)(F)F)ccc34)CC2)cc1 [compound 815993]
Ki ([2]; Table III, read-out: d3Ki): 0.00226 µM
Ki [1]: 0.0749 µM

COc1ccc(NC(=O)NCCCCN2CCN(c3csc4cc(C(F)(F)F)ccc34)CC2)cc1 [compound 815994]
Ki ([2]; Table III, read-out: d3Ki): 0.00887 µM
halpha1 % I ([1]; @1 μM): 11.9& Inh @1 μM % Inh
Ki [1]: 1.22 µM

CCCOc1ccc(NC(=O)NCCCCN2CCN(c3csc4cc(C(F)(F)F)ccc34)CC2)cc1 [compound 815995]
Ki ([2]; Table III, read-out: d3Ki): 0.0175 µM
halpha1 % I ([1]; @10 μM): 42.4% Inh @10 μM

Cc1ccc(NC(=O)NCCCCN2CCN(c3csc4cc(C(F)(F)F)ccc34)CC2)cc1 [compound 815997]
Ki ([2]; Table III, read-out: d3Ki): 0.0045 µM
halpha1 % I ([1]; @1 μM): 23.5% Inh @1 μM
Ki [1]: 0.936 µM

O=C(NCCCCN1CCN(c2csc3cc(C(F)(F)F)ccc23)CC1)Nc1ccc(Br)cc1 [compound 816000]
Ki ([2]; Table III, read-out: d3Ki): 0.00631 µM
Ki [1]: 0.234 µM

O=C(NCCCCN1CCN(c2csc3cc(C(F)(F)F)ccc23)CC1)NC1CCCCC1 [compound 816001]
Ki ([2]; Table III, read-out: d3Ki): 0.00468 µM
Ki [1]: 0.0836 µM

O=C(NCCCCN1CCN(c2csc3cc(C(F)(F)F)ccc23)CC1)Nc1ccc(C(F)(F)F)cc1 [compound 816002]
Ki ([2]; Table III, read-out: d3Ki): 0.0125 µM
halpha1 % I ([1]; @1 μM): 30.2% Inh @1 μM
Ki [1]: 0.435 µM

O=C(NCCCCN1CCN(c2csc3cc(C(F)(F)F)ccc23)CC1)Nc1cccc(F)c1 [compound 816003]
Ki ([2]; Table III, read-out: d3Ki): 0.00158 µM
Ki [1]: 0.0567 µM

O=C(NCCCCN1CCN(c2csc3cc(C(F)(F)F)ccc23)CC1)Nc1ccccc1 [compound 816005]
Ki ([2]; Table III, read-out: d3Ki): 0.00254 µM
Ki [1]: 0.0568 µM

O=C(NC[C@@H]1C[C@H]1CN1CCN(c2csc3cc(C(F)(F)F)ccc23)CC1)NC1CCCCC1 [compound 832811]
Ki [2]: 0.0182 µM

O=C(NC[C@@H]1C[C@H]1CN1CCN(c2csc3cc(C(F)(F)F)ccc23)CC1)Nc1ccccc1C(F)(F)F [compound 832812]
Ki [2]: 0.0395 µM

O=C(NC[C@@H]1C[C@H]1CN1CCN(c2csc3cc(C(F)(F)F)ccc23)CC1)Nc1cccc(Cl)c1 [compound 832813]
Ki [2]: 0.0508 µM

O=C(NC[C@@H]1C[C@H]1CN1CCN(c2csc3cc(C(F)(F)F)ccc23)CC1)Nc1ccc(Oc2ccccc2)cc1 [compound 832820]
Ki [2]: 0.0039 µM

CC(C)c1ccc(NC(=O)NC[C@@H]2C[C@H]2CN2CCN(c3csc4cc(C(F)(F)F)ccc34)CC2)cc1 [compound 832919]
Ki [2]: 0.0452 µM

COc1cccc(NC(=O)NC[C@@H]2C[C@H]2CN2CCN(c3csc4cc(C(F)(F)F)ccc34)CC2)c1 [compound 833203]
Ki [2]: 0.0182 µM

O=C(NCCCN1CCCCC1)NC[C@@H]1C[C@H]1CN1CCN(c2csc3cc(C(F)(F)F)ccc23)CC1 [compound 833258]
Ki [2]: 0.00039 µM

O=C(NCCCn1ccnc1)NC[C@@H]1C[C@H]1CN1CCN(c2csc3cc(C(F)(F)F)ccc23)CC1 [compound 833306, 1-(3-Imidazol-1-yl-propyl)-3-{(1R, 2R )-2-[4-(6-trifluoromethyl-benzo[b]thiophen-3yl-)-piperazin-1-ylmethyl]-cyclopropylmethyl}-urea]
Ki [2]: 0.000238 µM

C[C@H]1CC[C@H](NC(=O)NC[C@@H]2C[C@H]2CN2CCN(c3csc4cc(C(F)(F)F)ccc34)CC2)CC1 [compound 833356]
Ki [2]: 0.0291 µM

O=C(NCCCCN1CCN(c2csc3cc(C(F)(F)F)ccc23)CC1)Nc1ccc(C(=O)O)cc1 [compound 833724]
Ki [2]: 0.0021 µM

O=C(NCCCCN1CCN(c2csc3cc(C(F)(F)F)ccc23)CC1)Nc1ccc(CO)cc1 [compound 833725]
Ki [2]: 0.000602 µM
